The results in this text go back to patent US12509453B2, “BRM/BRG1 inhibitors and uses thereof” (Foghorn Therapeutics Inc., priority 2019, dated 2025).

Assay [1] has as its target T1, BRG-1 (Homo sapiens, UniProt P51532).
T1 construct: made in house; host or cells: High Five insect cells
Kind of assay: ATPase catalytic activity assay (ADP-Glo), BRG-1. It counts as biochemical. The note with it: 30 nM BRG-1, 400 μM ATP; for IC50: 20 nM salmon sperm DNA, read-out: BRG1 IP50 (μM)*; for Emax: read-out: BRG1 Max % Inhibition. How it is done:
(§1) The ATPase catalytic activity of BRM or BRG-1 was measured by the in vitro biochemical assay using ADP-Glo™ (Promega, V9102). The ADP-Glo™ kinase assay is performed in two steps once the reaction is complete. The first step is to deplete any unconsumed ATP in the reaction. The second step is to convert the reaction product ADP to ATP, which will be utilized by the luciferase to generate luminesce and be detected by a luminescence reader, such as Envision.
(§2) The assay reaction mixture (10 μL) contains 30 nM of BRM or BRG-1, 20 nM salmon sperm DNA (from Invitrogen, UltraPure™ Salmon Sperm DNA Solution, cat #15632011), and 400 μM of ATP in the ATPase assay buffer, which comprises of 20 mM Tris, pH 8, 20 mM MgCl2, 50 mM NaCl, 0.1% Tween-20, and 1 mM fresh DTT (Pierce™ DTT (Dithiothreitol), cat #20290). The reaction is initiated by the addition of the 2.5 μL ATPase solution to 2.5 μL ATP/DNA solution on low volume white Proxiplate-384 plus plate (PerkinElmer,cat #6008280) and incubates at room temperature for 1 hour. Then following addition of 5 μL of ADP-Glo™ Reagent provided in the kit, the reaction incubates at room temperature for 40 minutes. Then 10 μL of Kinase Detection Reagent provided in the kit is added to convert ADP to ATP, and the reaction incubates at room temperature for 60 minutes. Finally, luminescence measurement is collected with a plate-reading luminometer, such as Envision.
(§3) The ADP-Glo™ kinase assay is performed in two steps once the reaction is complete. The first step is to deplete any unconsumed ATP in the reaction. The second step is to convert the reaction product ADP to ATP, which will be utilized by the luciferase to generate luminesce and be detected by a luminescence reader, such as Envision.
as §2, with “BRG1,” for “BRG-1,”
(In general: ADP-Glo turns the ADP formed in a reaction into a luminescent signal.)

Assay [2] has as its target T2, BRM (Homo sapiens, UniProt P51531).
T2 construct: made in house; host or cells: High Five insect cells
The assay is described as follows: ATPase catalytic activity assay (ADP-Glo), BRM. The class given is biochemical. The note with it: 30 nM BRM, 400 μM ATP; for IC50: 20 nM salmon sperm DNA, read-out: BRM IP50 (μM)*. How it is done: as §1, §2, §3
as §2, with “BRG1,” for “BRG-1,”

Structures are written as SMILES. Where only a bound is given, the exact number is not on record here.

T2 sequence (P51531 whole entry): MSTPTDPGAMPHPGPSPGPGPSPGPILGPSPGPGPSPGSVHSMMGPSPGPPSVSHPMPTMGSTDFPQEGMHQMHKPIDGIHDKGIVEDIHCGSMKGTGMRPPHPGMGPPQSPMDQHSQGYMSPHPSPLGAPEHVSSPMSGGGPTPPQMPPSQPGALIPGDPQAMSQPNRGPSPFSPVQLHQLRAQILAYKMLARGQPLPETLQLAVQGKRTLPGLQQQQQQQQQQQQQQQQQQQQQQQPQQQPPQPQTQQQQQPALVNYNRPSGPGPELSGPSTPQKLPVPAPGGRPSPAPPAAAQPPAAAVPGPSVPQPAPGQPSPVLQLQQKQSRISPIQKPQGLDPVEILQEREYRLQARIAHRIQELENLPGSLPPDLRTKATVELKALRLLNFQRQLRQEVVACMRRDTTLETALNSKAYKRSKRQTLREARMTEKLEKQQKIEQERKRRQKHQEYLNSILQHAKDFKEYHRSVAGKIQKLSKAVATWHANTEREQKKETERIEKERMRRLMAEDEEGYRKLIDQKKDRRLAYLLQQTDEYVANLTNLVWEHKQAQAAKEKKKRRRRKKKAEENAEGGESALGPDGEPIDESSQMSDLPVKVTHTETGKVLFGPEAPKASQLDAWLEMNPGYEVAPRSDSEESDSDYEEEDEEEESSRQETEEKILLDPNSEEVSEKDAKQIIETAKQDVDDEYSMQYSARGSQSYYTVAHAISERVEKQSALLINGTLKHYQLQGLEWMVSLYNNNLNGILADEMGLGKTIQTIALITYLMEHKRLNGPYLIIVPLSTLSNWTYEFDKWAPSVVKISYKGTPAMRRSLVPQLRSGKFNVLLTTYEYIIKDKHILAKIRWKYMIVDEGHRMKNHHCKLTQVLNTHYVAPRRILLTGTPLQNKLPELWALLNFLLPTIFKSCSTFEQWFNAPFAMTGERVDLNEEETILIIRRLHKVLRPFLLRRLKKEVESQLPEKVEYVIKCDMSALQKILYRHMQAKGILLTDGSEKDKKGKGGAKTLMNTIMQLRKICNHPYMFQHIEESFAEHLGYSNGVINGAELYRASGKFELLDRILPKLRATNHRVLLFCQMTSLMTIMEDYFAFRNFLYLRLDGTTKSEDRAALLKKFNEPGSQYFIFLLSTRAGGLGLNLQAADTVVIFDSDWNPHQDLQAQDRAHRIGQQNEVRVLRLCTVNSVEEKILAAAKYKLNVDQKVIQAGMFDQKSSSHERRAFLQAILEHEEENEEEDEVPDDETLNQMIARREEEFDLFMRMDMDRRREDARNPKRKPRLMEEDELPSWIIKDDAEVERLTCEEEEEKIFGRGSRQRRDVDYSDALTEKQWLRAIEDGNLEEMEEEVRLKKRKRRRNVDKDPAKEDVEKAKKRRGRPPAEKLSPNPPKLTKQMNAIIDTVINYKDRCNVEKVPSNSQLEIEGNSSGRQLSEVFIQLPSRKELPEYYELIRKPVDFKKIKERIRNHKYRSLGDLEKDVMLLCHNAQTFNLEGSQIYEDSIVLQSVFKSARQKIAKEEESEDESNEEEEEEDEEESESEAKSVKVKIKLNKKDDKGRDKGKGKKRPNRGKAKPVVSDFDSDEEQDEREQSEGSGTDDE
T1 sequence (P51532 whole entry): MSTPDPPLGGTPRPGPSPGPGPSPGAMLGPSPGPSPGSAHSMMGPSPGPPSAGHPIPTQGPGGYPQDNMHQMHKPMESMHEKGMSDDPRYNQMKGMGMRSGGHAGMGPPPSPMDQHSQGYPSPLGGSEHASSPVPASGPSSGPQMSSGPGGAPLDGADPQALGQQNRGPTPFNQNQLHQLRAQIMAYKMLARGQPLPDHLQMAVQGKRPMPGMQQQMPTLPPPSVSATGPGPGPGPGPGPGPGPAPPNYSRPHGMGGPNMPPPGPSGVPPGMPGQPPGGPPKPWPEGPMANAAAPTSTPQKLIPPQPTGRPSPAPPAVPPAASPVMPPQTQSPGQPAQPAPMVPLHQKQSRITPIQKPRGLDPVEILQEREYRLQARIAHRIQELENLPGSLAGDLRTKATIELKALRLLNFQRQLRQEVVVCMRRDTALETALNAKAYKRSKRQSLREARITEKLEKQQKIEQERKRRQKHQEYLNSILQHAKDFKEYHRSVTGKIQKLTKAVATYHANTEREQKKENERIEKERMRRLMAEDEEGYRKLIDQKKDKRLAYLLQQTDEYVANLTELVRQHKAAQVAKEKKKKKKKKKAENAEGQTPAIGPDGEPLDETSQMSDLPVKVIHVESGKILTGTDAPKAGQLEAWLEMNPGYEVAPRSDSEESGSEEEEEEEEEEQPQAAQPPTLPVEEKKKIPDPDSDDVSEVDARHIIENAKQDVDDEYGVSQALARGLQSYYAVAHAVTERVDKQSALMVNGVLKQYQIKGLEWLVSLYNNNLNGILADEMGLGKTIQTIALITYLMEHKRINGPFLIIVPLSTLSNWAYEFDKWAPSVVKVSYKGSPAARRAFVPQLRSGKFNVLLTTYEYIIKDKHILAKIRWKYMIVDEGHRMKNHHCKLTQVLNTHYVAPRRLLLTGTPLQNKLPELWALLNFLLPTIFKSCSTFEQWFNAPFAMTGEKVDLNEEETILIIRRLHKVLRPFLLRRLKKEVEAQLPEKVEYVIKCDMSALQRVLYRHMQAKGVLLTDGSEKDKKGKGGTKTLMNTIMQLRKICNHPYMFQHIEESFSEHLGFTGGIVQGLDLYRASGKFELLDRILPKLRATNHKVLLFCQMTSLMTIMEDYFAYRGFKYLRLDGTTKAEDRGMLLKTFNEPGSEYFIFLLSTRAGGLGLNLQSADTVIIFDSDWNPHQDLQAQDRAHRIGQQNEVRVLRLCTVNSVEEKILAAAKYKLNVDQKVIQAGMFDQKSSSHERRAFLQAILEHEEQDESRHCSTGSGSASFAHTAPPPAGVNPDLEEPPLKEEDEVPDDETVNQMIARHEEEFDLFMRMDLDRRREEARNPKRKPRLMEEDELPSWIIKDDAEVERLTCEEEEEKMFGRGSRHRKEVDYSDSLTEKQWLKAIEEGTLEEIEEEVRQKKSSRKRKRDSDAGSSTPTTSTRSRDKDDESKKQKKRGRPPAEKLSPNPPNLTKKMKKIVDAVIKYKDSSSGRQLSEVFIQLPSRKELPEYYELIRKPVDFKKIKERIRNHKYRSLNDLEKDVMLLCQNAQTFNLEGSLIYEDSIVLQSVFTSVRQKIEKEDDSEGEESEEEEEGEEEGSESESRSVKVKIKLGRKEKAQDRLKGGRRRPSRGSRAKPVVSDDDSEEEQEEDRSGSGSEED

For the molecule `Cc1c(C(=O)NCC(=O)Nc2nc(-c3cccc(N4C[C@@H](C)O[C@@H](C)C4)c3)cs2)cn(S(C)(=O)=O)c1C` [Compound 15], in assay [1], the IC50 fell in the range of 0.1 to 1 µM and the Emax is more than 90%. In assay [2], the “BRM Max % Inhibition” value is recorded as more than 95% and the IC50 is less than 0.1 µM.
For `Cc1cc(-c2cccc(-c3csc(NC(=O)CNC(=O)c4cn(S(C)(=O)=O)c5ccccc45)n3)n2)ncn1` [Compound 23, N-(2-((4-(6-(6-methylpyrimidin-4-yl)pyridin-2-yl)thiazol-2-yl)amino)-2-oxoethyl)-1-(methylsulfonyl)-1H-indole-3-carboxamide] the same measures were 1 to 5 µM, more than 40%, more than 90% and 0.1 to 1 µM.
For `Cc1c(C(=O)NCC(=O)Nc2nc(-c3cccc(-c4ccncc4)c3)cs2)cn(S(C)(=O)=O)c1C` [Compound 11, 4,5-dimethyl-1-(methylsulfonyl)-N-(2-oxo-2-((4-(3-(pyridin-4-yl)phenyl)thiazol-2-yl)amino)ethyl)-1H-pyrrole-3-carboxamide] the same measures were less than 0.1 µM, more than 80%, more than 95% and less than 0.1 µM.
For `C[C@@H]1CN(c2cccc(-c3csc(NC(=O)CNC(=O)c4cn(S(C)(=O)=O)c5c4CCCC5)n3)c2)C[C@H](C)O1` [Compound 28, N-(2-((4-(3-((cis)-2,6-dimethylmorpholino)phenyl)thiazol-2-yl)amino)-2-oxoethyl)-1-(methylsulfonyl)-4,5,6,7-tetrahydro-1H-indole-3-carboxamide] the same measures were 1 to 5 µM, more than 40%, more than 90% and 0.1 to 1 µM.
For the molecule `Cc1cc(-c2cccc(-c3csc(NC(=O)CNC(=O)c4cn(S(C)(=O)=O)c5ccccc45)n3)c2)cc(C)n1` [Compound 33, N-(2-((4-(3-(2,6-dimethylpyridin-4-yl)phenyl)thiazol-2-yl)amino)-2-oxoethyl)-1-(methylsulfonyl)-1H-indole-3-carboxamide], in assay [1], the IC50 was 0.1 to 1 µM and the Emax was more than 90%. In assay [2], the “BRM Max % Inhibition” value is reported as more than 95% and the IC50 is less than 0.1 µM.
For `CC(C)S(=O)(=O)n1cc(C(=O)NCC(=O)Nc2nc(-c3cccc(-c4ccncc4)c3)cs2)c2ccccc21` [Compound 4, 1-(isopropylsulfonyl)-N-(2-oxo-2-((4-(3-(pyridin-4-yl)phenyl)thiazol-2-yl)amino)ethyl)-1H-indole-3-carboxamide], the IC50 was more than 5 µM in assay [1] and 0.1 to 1 µM in assay [2]. The “BRM Max % Inhibition” value in assay [2] was more than 60%.
`C[C@@H]1CN(c2cccc(-c3csc(NC(=O)CNC(=O)c4cn(S(C)(=O)=O)c5ccccc45)n3)c2)C[C@H](C)O1` [Compound 26, N-(2-((4-(3-((cis)-2,6-dimethylmorpholino)phenyl)thiazol-2-yl)amino)-2-oxoethyl)-1-(methylsulfonyl)-1H-indole-3-carboxamide]: in assay [1], the IC50 lay in the range of 1 to 5 µM and the Emax is more than 60%. Moreover, in assay [2], the “BRM Max % Inhibition” value was more than 90% and the IC50 was 0.1 to 1 µM.
For `Cc1nccc(-c2cccc(-c3csc(NC(=O)CNC(=O)c4cc(Cl)n(S(=O)(=O)C(C)C)c4)n3)n2)n1` [Compound 24, 5-chloro-1-(isopropylsulfonyl)-N-(2-((4-(6-(2-methylpyrimidin-4-yl)pyridin-2-yl)thiazol-2-yl)amino)-2-oxoethyl)-1H-pyrrole-3-carboxamide] the same measures were more than 5 µM, less than 30%, more than 60% and 0.1 to 1 µM.
For the molecule `Cc1c(C(=O)NCC(=O)Nc2nc(-c3cccc(-c4ccncc4)c3)cs2)cn(S(=O)(=O)C(C)C)c1C` [Compound 10, 1-(isopropylsulfonyl)-4,5-dimethyl-N-(2-oxo-2-((4-(3-(pyridin-4-yl)phenyl)thiazol-2-yl)amino)ethyl)-1H-pyrrole-3-carboxamide], in assay [1], the IC50 was more than 5 µM and the Emax was less than 30%. In assay [2], the “BRM Max % Inhibition” value is more than 70% and the IC50 lay within 0.1 to 1 µM.
For `Cc1cc(C(=O)NCC(=O)Nc2nc(-c3cccc(-c4ccn(C)n4)c3)cs2)cn1S(=O)(=O)C(C)C` [Compound 6, 1-(isopropylsulfonyl)-5-methyl-N-(2-((4-(3-(1-methyl-1H-pyrazol-3-yl)phenyl)thiazol-2-yl)amino)-2-oxoethyl)-1H-pyrrole-3-carboxamide] the same measures were 1 to 5 µM, more than 50%, more than 90% and 0.1 to 1 µM.
Consider `Cc1cc(-c2cccc(-c3csc(NC(=O)CNC(=O)c4cn(S(=O)(=O)C(C)C)c(C)c4C)n3)c2)cc(C)n1` [Compound 12, N-(2-((4-(3-(2,6-dimethylpyridin-4-yl)phenyl)thiazol-2-yl)amino)-2-oxoethyl)-1-(isopropylsulfonyl)-4,5-dimethyl-1H-pyrrole-3-carboxamide], for which, in assay [1], the IC50 lay in the range of 0.1 to 1 µM and the Emax is more than 80%. In addition, in assay [2], the “BRM Max % Inhibition” value is recorded as more than 95% and the IC50 is less than 0.1 µM.
For `C[C@@H]1CN(c2cccc(-c3csc(NC(=O)CNC(=O)c4cc(Cl)n(S(C)(=O)=O)c4)n3)c2)C[C@H](C)O1` [Compound 44, 5-chloro-N-(2-((4-(3-((2R,6S)-2,6-dimethylmorpholino)phenyl)thiazol-2-yl)amino)-2-oxoethyl)-1-(methylsulfonyl)-1H-pyrrole-carboxamide], the IC50 in assay [1] and in assay [2] was less than 0.1 µM each time.
In the case of `Cc1cc(-c2cccc(-c3csc(NC(=O)CNC(=O)c4cn(S(=O)(=O)C(C)C)c5c4CCCC5)n3)c2)cc(C)n1` [Compound 20, N-(2-((4-(3-(2,6-dimethylpyridin-4-yl)phenyl)thiazol-2-yl)amino)-2-oxoethyl)-1-(isopropylsulfonyl)-4,5,6,7-tetrahydro-1H-indole-3-carboxamide], in assay [1], the IC50 is more than 5 µM and the Emax is less than 30%. In addition, in assay [2], the “BRM Max % Inhibition” value is given as more than 95% and the IC50 lay in the range of 0.1 to 1 µM.
As for `Cc1cc(-c2cccc(-c3csc(NC(=O)CNC(=O)c4cn(S(C)(=O)=O)c5c4CCCC5)n3)c2)cc(C)n1` [Compound 35, N-(2-((4-(3-(2,6-dimethylpyridin-4-yl)phenyl)thiazol-2-yl)amino)-2-oxoethyl)-1-(methylsulfonyl)-4,5,6,7-tetrahydro-1H-indole-3-carboxamide], in assay [1], the IC50 was 0.1 to 1 µM and the Emax is more than 80%. Also, in assay [2], the “BRM Max % Inhibition” value is reported as more than 95% and the IC50 is less than 0.1 µM.
On to `CC(C)S(=O)(=O)n1cc(C(=O)NCC(=O)Nc2nc(-c3cccc(N4CCC(O)CC4)c3)cs2)cc1Cl` [Compound 40, 5-chloro-N-(2-((4-(3-(4-hydroxypiperidin-1-yl)phenyl)thiazol-2-yl)amino)-2-oxoethyl)-1-(isopropylsulfonyl)-1H-pyrrole-3-carboxamide], for which, in assay [1], the IC50 was 1 to 5 µM and the Emax was more than 50%. Besides, in assay [2], the “BRM Max % Inhibition” value is more than 80% and the IC50 fell in the range of 0.1 to 1 µM.
